Results: publication PMC5218480 (PLoS ONE, 2017)

System: MV-4-11 cells
Assay: Gene expression microarray analysis (Affymetrix PrimeView) and GSEA
Assay type: cell-based, human
Design: RFU PODN (11730768_x_at) / Fold change /veh PODN (11730768_x_at) / RFU LINC00158 (11744669_a_at) / Fold change /veh LINC00158 (11744669_a_at) / RFU DUSP10 (11751237_a_at) / Fold change /veh DUSP10 (11751237_a_at) / RFU ID3 (11757404_x_at) / Fold change /veh ID3 (11757404_x_at) / RFU PLEKHG5 (11737974_s_at) / Fold change /veh PLEKHG5 (11737974_s_at) / RFU LRRC4B (11730491_at) / Fold change /veh LRRC4B (11730491_at) / RFU GIMAP4 (11747438_a_at) / Fold change /veh GIMAP4 (11747438_a_at) / RFU KRT8 (11758183_x_at) / Fold change /veh KRT8 (11758183_x_at) / RFU CNN1 (11734310_a_at) / Fold change /veh CNN1 (11734310_a_at) / RFU VPS37D (11726825_at) / Fold change /veh VPS37D (11726825_at) / RFU C10orf10 (11716522_x_at) / Fold change /veh C10orf10 (11716522_x_at) / RFU KIR2DL2 /// KIR2DL4 /// KIR2DL5A /// KIR2DL5B /// KIR2DS1 /// KIR2DS2 /// KIR2DS3 /// KIR2DS4 /// KIR3DL3 /// KIR3DL3 /// KIR3DS1 (11738374_at) / Fold change /veh KIR2DL2 /// KIR2DL4 /// KIR2DL5A /// KIR2DL5B /// KIR2DS1 /// KIR2DS2 /// KIR2DS3 /// KIR2DS4 /// KIR3DL3 /// KIR3DL3 /// KIR3DS1 (11738374_at) / RFU C1QL1 (11718748_at) / Fold change /veh C1QL1 (11718748_at) / RFU TMPRSS4 (11747572_a_at) / Fold change /veh TMPRSS4 (11747572_a_at) / RFU HAMP (11756126_x_at) / Fold change /veh HAMP (11756126_x_at) / RFU RNFT2 (11725882_a_at) / Fold change /veh RNFT2 (11725882_a_at) / RFU NR4A2 (11747474_a_at) / Fold change /veh NR4A2 (11747474_a_at) / RFU ABCC12 (11746883_a_at) / Fold change /veh ABCC12 (11746883_a_at) / RFU TMEM136 (11760407_x_at) / Fold change /veh TMEM136 (11760407_x_at) / RFU CLDN22 /// WWC2 (11732394_at) / Fold change /veh CLDN22 /// WWC2 (11732394_at) / RFU HLA-DPB1 (11760878_x_at) / Fold change /veh HLA-DPB1 (11760878_x_at) / RFU SPINT1 (11716480_a_at) / Fold change /veh SPINT1 (11716480_a_at) / RFU GAP43 (11754022_s_at) / Fold change /veh GAP43 (11754022_s_at) / RFU A4GNT (11735810_at) / Fold change /veh A4GNT (11735810_at) / RFU PRB3 (11715151_x_at) / Fold change /veh PRB3 (11715151_x_at) / RFU TUBB4B (11761932_at) / Fold change /veh TUBB4B (11761932_at) / RFU CAPN14 (11732068_a_at) / Fold change /veh CAPN14 (11732068_a_at) / RFU TMCC2 (11721928_a_at) / Fold change /veh TMCC2 (11721928_a_at) / RFU IRGQ (11745062_a_at) / Fold change /veh IRGQ (11745062_a_at) / RFU FAM174B (11720279_a_at) / Fold change /veh FAM174B (11720279_a_at) / RFU TMPRSS4 (11748680_a_at) / Fold change /veh TMPRSS4 (11748680_a_at) / RFU FAM212B (11763350_a_at) / Fold change /veh FAM212B (11763350_a_at) / RFU PLEKHG5 (11743358_a_at) / Fold change /veh PLEKHG5 (11743358_a_at) / RFU ZSCAN30 (11745921_a_at) / Fold change /veh ZSCAN30 (11745921_a_at) / RFU CMKLR1 (11741424_a_at) / Fold change /veh CMKLR1 (11741424_a_at) / RFU LOC101060620 /// MAPK8IP1 (11723275_at) / Fold change /veh LOC101060620 /// MAPK8IP1 (11723275_at) / RFU SPTSSB (11747773_x_at) / Fold change /veh SPTSSB (11747773_x_at) / RFU PRSS12 (11739890_at) / Fold change /veh PRSS12 (11739890_at) / RFU BIN1 (11741810_x_at) / Fold change /veh BIN1 (11741810_x_at) / RFU WNT11 (11732464_a_at) / Fold change /veh WNT11 (11732464_a_at) / RFU C10orf10 (11716521_a_at) / Fold change /veh C10orf10 (11716521_a_at) / RFU C5orf56 (11738089_at) / Fold change /veh C5orf56 (11738089_at) / RFU CYB561 (11721691_x_at) / Fold change /veh CYB561 (11721691_x_at) / RFU ANKRD19P (11752326_a_at) / Fold change /veh ANKRD19P (11752326_a_at) / RFU OR2T12 /// OR2T33 /// OR2T8 (11738714_s_at) / Fold change /veh OR2T12 /// OR2T33 /// OR2T8 (11738714_s_at) / RFU VCAN (11748164_a_at) / Fold change /veh VCAN (11748164_a_at) / RFU JSRP1 (11732532_at) / Fold change /veh JSRP1 (11732532_at) / RFU KRTAP10-11 (11738290_x_at) / Fold change /veh KRTAP10-11 (11738290_x_at) / RFU MYO3A (11730013_a_at) / Fold change /veh MYO3A (11730013_a_at) / RFU EBF3 (11725865_a_at) / Fold change /veh EBF3 (11725865_a_at) / RFU CAMK2N1 (11719241_x_at) / Fold change /veh CAMK2N1 (11719241_x_at) / RFU C5orf56 (11738088_a_at) / Fold change /veh C5orf56 (11738088_a_at) / RFU OLFML3 (11715873_a_at) / Fold change /veh OLFML3 (11715873_a_at) / RFU LOC100653217 /// NTM (11731650_a_at) / Fold change /veh LOC100653217 /// NTM (11731650_a_at) / RFU MAPK11 (11762145_a_at) / Fold change /veh MAPK11 (11762145_a_at) / RFU FIZ1 (11724087_x_at) / Fold change /veh FIZ1 (11724087_x_at) / RFU OASL (11726364_x_at) / Fold change /veh OASL (11726364_x_at) / RFU SOX15 (11748057_x_at) / Fold change /veh SOX15 (11748057_x_at) / RFU CD79A (11719716_a_at) / Fold change /veh CD79A (11719716_a_at) / RFU HIST1H1D (11736915_at) / Fold change /veh HIST1H1D (11736915_at) / RFU CASKIN2 (11723855_a_at) / Fold change /veh CASKIN2 (11723855_a_at) / RFU LOC730098 (11760151_x_at) / Fold change /veh LOC730098 (11760151_x_at) / RFU OR4N2 (11742367_at) / Fold change /veh OR4N2 (11742367_at) / RFU PRRT2 (11749266_a_at) / Fold change /veh PRRT2 (11749266_a_at) / RFU SNX32 (11753110_a_at) / Fold change /veh SNX32 (11753110_a_at) / RFU CDHR5 (11726645_a_at) / Fold change /veh CDHR5 (11726645_a_at) / RFU RCAN1 (11760418_a_at) / Fold change /veh RCAN1 (11760418_a_at) / RFU FAM167A (11723789_a_at) / Fold change /veh FAM167A (11723789_a_at) / RFU FAM26E (11764081_at) / Fold change /veh FAM26E (11764081_at) / RFU ISYNA1 (11749810_s_at) / Fold change /veh ISYNA1 (11749810_s_at) / RFU ACY1 (11761880_at) / Fold change /veh ACY1 (11761880_at) / RFU 11764098_at / Fold change /veh 11764098_at / RFU SAMD14 (11745864_x_at) / Fold change /veh SAMD14 (11745864_x_at) / RFU NPB (11741838_a_at) / Fold change /veh NPB (11741838_a_at) / RFU TMPRSS6 (11731388_a_at) / Fold change /veh TMPRSS6 (11731388_a_at) / RFU KRTAP10-2 (11738614_at) / Fold change /veh KRTAP10-2 (11738614_at) / RFU ARHGAP8 /// PRR5-ARHGAP8 (11727945_x_at) / Fold change /veh ARHGAP8 /// PRR5-ARHGAP8 (11727945_x_at) / RFU KRTAP5-7 /// NADSYN1 (11734609_at) / Fold change /veh KRTAP5-7 /// NADSYN1 (11734609_at) / RFU RASL12 (11751679_a_at) / Fold change /veh RASL12 (11751679_a_at) / RFU CDKN2B (11736163_a_at) / Fold change /veh CDKN2B (11736163_a_at) / RFU PRF1 (11729649_at) / Fold change /veh PRF1 (11729649_at) / RFU, ZNF638 /// ZNF638-IT1 / Fold change vs veh, ZNF638 /// ZNF638-IT1 / RFU, PANK3 / Fold change vs veh, PANK3 / RFU, SH3YL1 / Fold change vs veh, SH3YL1 / RFU, ZEB2 / Fold change vs veh, ZEB2 / RFU, NRIP1 / Fold change vs veh, NRIP1 / RFU, PTTG1IP / Fold change vs veh, PTTG1IP / RFU, CAPN2 / Fold change vs veh, CAPN2 / RFU, MED14 / Fold change vs veh, MED14 / RFU, SNORA58 / Fold change vs veh, SNORA58 / RFU, C1orf63 / Fold change vs veh, C1orf63 / RFU, LRRFIP1 / Fold change vs veh, LRRFIP1 / RFU, NDUFAF7 / Fold change vs veh, NDUFAF7 / RFU, SLC12A2 / Fold change vs veh, SLC12A2 / RFU, IBTK / Fold change vs veh, IBTK / RFU, ESF1 / Fold change vs veh, ESF1 / Fold change vs veh, TMEM50B / RFU, TAOK1 / Fold change vs veh, TAOK1 / RFU, ACBD3 / Fold change vs veh, ACBD3 / RFU, TMA16 / Fold change vs veh, TMA16 / RFU, RWDD3 / Fold change vs veh, RWDD3 / RFU, BCAT1 / Fold change vs veh, BCAT1 / RFU, EDEM3 / Fold change vs veh, EDEM3 / RFU, TMEM33 / Fold change vs veh, TMEM33 / RFU, WDR75 / Fold change vs veh, WDR75 / RFU, AHCTF1 / Fold change vs veh, AHCTF1 / RFU, TFRC / Fold change vs veh, TFRC / RFU, ZDHHC17 / Fold change vs veh, ZDHHC17 / RFU, NOM1 / Fold change vs veh, NOM1 / RFU, ARL8B / Fold change vs veh, ARL8B / RFU, ZBTB11 / Fold change vs veh, ZBTB11 / RFU, TAMM41 / Fold change vs veh, TAMM41 / RFU, KIAA1704 /// LOC100996395 / Fold change vs veh, KIAA1704 /// LOC100996395 / RFU, ING1 / Fold change vs veh, ING1 / RFU, TRMT61B / Fold change vs veh, TRMT61B / RFU, FUBP3 / Fold change vs veh, FUBP3 / RFU, TP53 / Fold change vs veh, TP53 / RFU, TNKS2 / Fold change vs veh, TNKS2 / RFU, ZFP14 / Fold change vs veh, ZFP14 / RFU, ACTR2 / Fold change vs veh, ACTR2 / RFU, PPP3R1 / Fold change vs veh, PPP3R1 / RFU, PIK3R1 / Fold change vs veh, PIK3R1 / RFU, HNRNPA1 / Fold change vs veh, HNRNPA1 / RFU, RNF170 / Fold change vs veh, RNF170 / RFU, ZNF28 / Fold change vs veh, ZNF28 / RFU, RNGTT / Fold change vs veh, RNGTT / RFU, OGT / Fold change vs veh, OGT / RFU, BRD1 / Fold change vs veh, BRD1 / RFU, MARS / Fold change vs veh, MARS / RFU, ZNF655 / Fold change vs veh, ZNF655 / RFU, FAHD1 / Fold change vs veh, FAHD1 / RFU, BDP1 / Fold change vs veh, BDP1 / RFU, LRRCC1 / Fold change vs veh, LRRCC1 / RFU, ARID1A / Fold change vs veh, ARID1A / RFU, ZNF146 / Fold change vs veh, ZNF146 / RFU, ZNF330 / Fold change vs veh, ZNF330 / RFU, GPN3 / Fold change vs veh, GPN3 / RFU, C9orf123 / Fold change vs veh, C9orf123 / RFU, N4BP2L2 / Fold change vs veh, N4BP2L2 / RFU, ARFIP1 / Fold change vs veh, ARFIP1 / RFU, FAM179B / Fold change vs veh, FAM179B / RFU, BCL10 / Fold change vs veh, BCL10 / RFU, UHRF1BP1L / Fold change vs veh, UHRF1BP1L / RFU, BET1 / Fold change vs veh, BET1 / RFU, CNOT2 / Fold change vs veh, CNOT2 / RFU, ZNF268 / Fold change vs veh, ZNF268 / Fold change vs veh, ZNF507 / RFU, DGCR2 / Fold change vs veh, DGCR2 / RFU, WDSUB1 / Fold change vs veh, WDSUB1 / Fold change vs veh, HSP90B1 /// MIR3652 / RFU, ADSS / Fold change vs veh, ADSS / RFU, GK / Fold change vs veh, GK / RFU, ZNF148 / Fold change vs veh, ZNF148 / RFU, TAF9 / Fold change vs veh, TAF9 / RFU, SLC1A5 / Fold change vs veh, SLC1A5 / RFU, SLMO2 / Fold change vs veh, SLMO2 / RFU, ABCC4 / Fold change vs veh, ABCC4 / RFU, LOC101060439 /// RAP1B / Fold change vs veh, LOC101060439 /// RAP1B / RFU, RFX7 / Fold change vs veh, RFX7 / RFU, GTPBP10 / Fold change vs veh, GTPBP10 / RFU, CNEP1R1 / Fold change vs veh, CNEP1R1 / RFU, BIVM-ERCC5 /// ERCC5 / Fold change vs veh, BIVM-ERCC5 /// ERCC5 / RFU, ILF3 / Fold change vs veh, ILF3 / RFU 11762660_at / Fold change /veh 11762660_at / RFU VCAN (11757783_s_at) / Fold change /veh VCAN (11757783_s_at) / RFU DDX43 (11728927_at) / Fold change /veh DDX43 (11728927_at) / RFU KRT8 (11758188_x_at) / Fold change /veh KRT8 (11758188_x_at) / RFU NKD1 (11759106_at) / Fold change /veh NKD1 (11759106_at) / RFU SRD5A1 (11742802_a_at) / Fold change /veh SRD5A1 (11742802_a_at) / RFU TPSAB1 /// TPSB2 (11721975_s_at) / Fold change /veh TPSAB1 /// TPSB2 (11721975_s_at) / RFU GSTM3 (11746129_a_at) / Fold change /veh GSTM3 (11746129_a_at) / RFU IL23R (11737362_x_at) / Fold change /veh IL23R (11737362_x_at) / RFU TMEM51 (11727254_a_at) / Fold change /veh TMEM51 (11727254_a_at) / RFU PIWIL2 (11732686_x_at) / Fold change /veh PIWIL2 (11732686_x_at) / RFU ORM1 (11744905_x_at) / Fold change /veh ORM1 (11744905_x_at) / RFU CCDC152 (11743942_at) / Fold change /veh CCDC152 (11743942_at) / RFU ECM1 (11717891_a_at) / Fold change /veh ECM1 (11717891_a_at) / RFU IL23R (11748794_a_at) / Fold change /veh IL23R (11748794_a_at) / RFU TNFAIP8L3 (11732012_x_at) / Fold change /veh TNFAIP8L3 (11732012_x_at) / RFU MBOAT4 (11741988_at) / Fold change /veh MBOAT4 (11741988_at) / RFU 11764193_at / Fold change /veh 11764193_at / RFU TMEM53 (11763286_at) / Fold change /veh TMEM53 (11763286_at) / RFU MAGEB2 (11727129_at) / Fold change /veh MAGEB2 (11727129_at) / RFU TMEM200A (11744735_a_at) / Fold change /veh TMEM200A (11744735_a_at) / RFU CCDC152 (11751479_a_at) / Fold change /veh CCDC152 (11751479_a_at) / RFU FAM211A (11726209_a_at) / Fold change /veh FAM211A (11726209_a_at) / RFU RGS16 (11746705_a_at) / Fold change /veh RGS16 (11746705_a_at) / RFU VCAN (11755009_s_at) / Fold change /veh VCAN (11755009_s_at) / RFU RHOB (11743442_s_at) / Fold change /veh RHOB (11743442_s_at) / RFU RGS16 (11720943_a_at) / Fold change /veh RGS16 (11720943_a_at) / RFU RGS16 (11720944_at) / Fold change /veh RGS16 (11720944_at) / RFU, VPS4B / Fold change vs veh, VPS4B / RFU, CREB1 / Fold change vs veh, CREB1 / RFU, DNAJC13 / Fold change vs veh, DNAJC13 / RFU, GNAQ / Fold change vs veh, GNAQ / RFU, CDK5R1 / Fold change vs veh, CDK5R1 / RFU, ZRANB3 / Fold change vs veh, ZRANB3 / RFU, CUL4A / Fold change vs veh, CUL4A / RFU, CCNY / Fold change vs veh, CCNY / RFU, UFL1 / Fold change vs veh, UFL1 / RFU, COG3 / Fold change vs veh, COG3 / RFU, DIAPH2 / Fold change vs veh, DIAPH2 / RFU, SKA2 / Fold change vs veh, SKA2 / RFU, AFF3 / Fold change vs veh, AFF3 / RFU, LMF1 / Fold change vs veh, LMF1 / RFU, IPO11 / Fold change vs veh, IPO11 / RFU, DFFB / Fold change vs veh, DFFB / RFU, FOXP1 / Fold change vs veh, FOXP1 / RFU, CARD8 / Fold change vs veh, CARD8 / RFU, STRN3 / Fold change vs veh, STRN3 / RFU, ADK / Fold change vs veh, ADK / RFU, RASSF2 / Fold change vs veh, RASSF2 / RFU, WIPF1 / Fold change vs veh, WIPF1 / RFU, LARP1B / Fold change vs veh, LARP1B / RFU, RASA1 / Fold change vs veh, RASA1 / RFU, RB1 / Fold change vs veh, RB1 / RFU, PPFIA1 / Fold change vs veh, PPFIA1 / RFU, MAT2A / Fold change vs veh, MAT2A / RFU, CCT5 / Fold change vs veh, CCT5 / RFU, WDR92 / Fold change vs veh, WDR92 / RFU, CUX1 / Fold change vs veh, CUX1 / RFU, TTC7A / Fold change vs veh, TTC7A / RFU, TMEM135 / Fold change vs veh, TMEM135 / RFU, DEPTOR / Fold change vs veh, DEPTOR / RFU, CPM / Fold change vs veh, CPM / RFU, DNAJB6 / Fold change vs veh, DNAJB6 / RFU, CACNA2D3 / Fold change vs veh, CACNA2D3 / RFU, DTX4 / Fold change vs veh, DTX4 / RFU, TFCP2 / Fold change vs veh, TFCP2 / RFU, GMCL1 /// GMCL1P1 / Fold change vs veh, GMCL1 /// GMCL1P1 / RFU, AEBP2 / Fold change vs veh, AEBP2 / RFU, SNHG1 /// SNORD22 /// SNORD25 /// SNORD26 /// SNORD27 /// SNORD28 /// SNORD29 /// SNORD31 / Fold change vs veh, SNHG1 /// SNORD22 /// SNORD25 /// SNORD26 /// SNORD27 /// SNORD28 /// SNORD29 /// SNORD31 / Fold change (Aza/veh), C12orf56 (ProbeSet 11735607_a_at) / Fold change (ACY-1035/veh), C12orf56 (ProbeSet 11735607_a_at) / Fold change (Aza/veh), FGFR1OP (ProbeSet 11751329_s_at) / Fold change (ACY-1035/veh), FGFR1OP (ProbeSet 11751329_s_at) / Fold change (Aza/veh), VPS36 (ProbeSet 11739960_a_at) / Fold change (ACY-1035/veh), VPS36 (ProbeSet 11739960_a_at) / RFU SYPL1 (11715823_x_at) / Fold change /veh SYPL1 (11715823_x_at) / RFU IGFBP7 (11715501_s_at) / Fold change /veh IGFBP7 (11715501_s_at) / RFU REEP3 (11722064_at) / Fold change /veh REEP3 (11722064_at) / RFU IGLL1 (11728026_x_at) / Fold change /veh IGLL1 (11728026_x_at): dose or concentration left out as unconfirmed
Conditions: ProbeSet 11759095_at; LIST D

Structure (SMILES): Nc1ccc(-c2cccs2)cc1NC(=O)c1ccc2c(c1)cc(C1CC1)n2CCN1CCOCC1 [ACY-1035]
- RFU, GNAQ: 901.39 RFU
